Laboratory results published in US8378117B2 (priority 2005, dated 2013).
Where two headings read alike, the source gives them in different places.

Columns and labels:
[1] = target: T1, CB1 receptor (Homo sapiens, UniProt P21554); assay: Binding assay for CB1 agonists or inverse agonists (SK-N-MC membranes, [3H]-CP-55,940); settings: for IC50: Cannabinoid CB1 Receptor Binding IC50, calculated by linear regression from percent inhibition at various test concentrations
T1 construct: expressed in transfected cells
T1 sequence (P21554 whole entry): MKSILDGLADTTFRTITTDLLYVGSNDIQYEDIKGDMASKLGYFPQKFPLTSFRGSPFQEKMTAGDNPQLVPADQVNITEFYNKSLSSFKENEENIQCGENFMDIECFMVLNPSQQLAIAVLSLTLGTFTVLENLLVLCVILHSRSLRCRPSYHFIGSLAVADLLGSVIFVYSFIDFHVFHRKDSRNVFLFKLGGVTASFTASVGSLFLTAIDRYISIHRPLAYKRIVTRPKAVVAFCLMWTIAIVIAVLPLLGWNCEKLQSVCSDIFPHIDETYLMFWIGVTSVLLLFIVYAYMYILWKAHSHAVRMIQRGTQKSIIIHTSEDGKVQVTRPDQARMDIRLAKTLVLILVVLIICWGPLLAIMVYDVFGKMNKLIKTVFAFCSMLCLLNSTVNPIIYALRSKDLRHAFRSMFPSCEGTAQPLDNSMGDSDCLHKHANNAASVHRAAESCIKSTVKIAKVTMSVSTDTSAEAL
Outline: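 Radioligand displacement: [3H]-CP-55,940 at […], 90 min at 30° C, pH 7.5 Tris buffer with 0.5 mg/mL fatty-acid-free BSA, using semi-purified membranes of human-CB1-transfected SK-N-MC cells. Bound counts collected on GF/C filters, 10 uM WIN 55,212 for non-specific; IC50 from percent inhibition over several concentrations.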

[2] = target: T2, CB2 receptor (Homo sapiens, UniProt P34972); assay: Binding assay for CB2 agonists or inverse agonists (SK-N-MC membranes, [3H]-CP-55,940); settings: for IC50: Cannabinoid CB2 Receptor Binding IC50, calculated by linear regression from percent inhibition at various test concentrations; for inhibition at 0.2 µM: read-out: CB2 receptor binding percent inhibition, test concentration 0.2 μM (footnote 2)
T2 construct: expressed in transfected cells
T2 sequence (P34972 whole entry): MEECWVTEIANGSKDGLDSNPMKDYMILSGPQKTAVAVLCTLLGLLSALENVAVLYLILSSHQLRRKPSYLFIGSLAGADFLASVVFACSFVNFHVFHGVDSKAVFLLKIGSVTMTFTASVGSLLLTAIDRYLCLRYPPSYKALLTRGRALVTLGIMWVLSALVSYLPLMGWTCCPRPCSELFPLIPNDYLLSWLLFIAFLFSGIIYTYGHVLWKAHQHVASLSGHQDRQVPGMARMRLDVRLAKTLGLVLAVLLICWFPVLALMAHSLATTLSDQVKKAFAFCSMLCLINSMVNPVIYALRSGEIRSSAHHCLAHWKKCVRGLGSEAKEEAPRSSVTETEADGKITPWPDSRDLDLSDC
Outline: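 IC50 came from percent-inhibition data over several compound concentrations, fitted by linear regression. Binding used semi-purified membranes of human CB2-transfected SK-N-MC cells, 90 min at 30 °C, pH 7.5 Tris-HCl with MgCl2, EDTA and BSA, then filtration and scintillation counting.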

[3] = target: T1, CB1 receptor; assay: cell-based; settings: forskolin induced β-galactosidase activity
Outline: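 Read-out is forskolin-driven CRE-β-gal reporter activity in stably transfected human-CB1 SK-N-MC cells, normalised to vehicle (100%); agonism lowers, inverse agonism raises signal. Values are EC50 (linear regression, multiple concentrations) or % change at one concentration.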

[4] = target: T2, CB2 receptor; assay: Functional cell-based assay, CB2 receptor mediated change in CRE β-gal expression (SK-N-MC cells); settings: for EC50: SK-N-MC cells
Source text: The CB1 and CB2 receptors are G-protein coupled receptors (GPCR), which influence cell function via the Gi-protein. These receptors modulate the activity of intracellular adenylate cyclase, which in turn produces the intracellular signal messenger cyclic-AMP (cAMP).
At baseline, or during non-ligand bound conditions, these receptors are constitutively active and tonically suppress adenylate cyclase activity. The binding of an agonist causes further receptor activation and produces additional suppression of adenylate cyclase activity. The binding of an inverse agonist inhibits the constitutive activity of the receptors and results in an increase in adenylate cyclase activity.
By monitoring intracellular adenylate cyclase activity, the ability of compounds to act as agonists or inverse agonists can be determined.
Test compounds were evaluated in SK-N-MC cells which, using standard transfection procedures, were stably transfected with human cDNA for pcDNA3-CRE β-gal and pcDNA3 CB1 receptor (human) or pcDNA3 CB2 receptor (human). By expressing CRE β-gal, the cells produced β-galactosidase in response to CRE promoter activation by cAMP. Cells expressing CRE β-gal and either the human CB1 or CB2 receptor will produce less β-galactosidase when treated with a CB1/CB2 agonist and will produce more β-galactosidase when treated with a CB1/CB2 inverse agonist.
The cells were grown in 96-well plates under standard cell culture conditions at 37° C. in a 5% CO2 atmosphere and culture media (wherein the media was supplemented with 2 mM L-glutamine, […] sodium pyruvate, 10% FBS (fetal bovine serum) and antibiotics).
For cells expressing CRE β-gal and the CB2 receptor, CB2 agonists reduced β-galactosidase activity in a dose-dependent manner and CB2 inverse agonists increase β-galactosidase activity in a dose-dependent manner.
The change in forskolin induced β-galactosidase activity was determined by setting a vehicle treated cell's activity value at 100% and expressing the β-galactosidase activity measured in a corresponding compound treated cell as a percent of the vehicle treated cell activity.
The EC50 value for functional activity for compounds tested was calculated by linear regression and was obtained from studies in which varying compound concentrations were used.

[5] = read-out: CB1 receptor binding percent inhibition, test concentration 0.2 μM (footnote 2)
[6] = CB1 Receptor Functional Agonist EC50, SK-N-MC cells
[7] = CB2 Receptor Functional Agonist EC50, forskolin induced β-galactosidase activity

| SMILES | IC50 [1] | inhibition at 0.2 µM [1, 5] | IC50 [2] | inhibition at 0.2 µM [2] | EC50 [3, 6] | EC50 [4, 7] | EC50 ([3]; SK-N-MC cells, read-out: CB1 Receptor Functional Agonist EC50) | EC50 ([4]; forskolin induced β-galactosidase activity, read-out: CB2 Receptor Functional Agonist EC50) | inhibition at 0.2 µM ([1]; read-out: CB1 receptor binding percent inhibition) | CB2 receptor binding percent inhibition ([2]; test concentration 0.2 μM (footnote 2)) | CB2 receptor change in functional activity ([4]; one compound concentration, forskolin induced β-galactosidase activity) |
| --- | --- | --- | --- | --- | --- | --- | --- | --- | --- | --- | --- |
| Cn1nc(C(=O)N[C@H](CO)Cc2ccc(O)cc2)c2c1/C(=C/c1cccc(F)c1)CCCC2 [Cpd 244, (8E)-(2S)-8-(3-fluoro-benzylidene)-1-methyl-1,4,5,6,7,8-hexahydro-cycloheptapyrazole-3-carboxylic acid [1-hydroxymethyl-2-(4-hydroxy-phenyl)-ethyl]-amide] | 0.1 µM | 68% | 0.02 µM | 78% | 0.6 µM | 0.005 µM |  |  |  |  |  |
| O=C(N[C@H](CCO)c1ccccc1)c1n[nH]c2c1CCCC/C2=C\c1cccc(Cl)c1 [Cpd 250, (8E)-8-(3-chloro-benzylidene)-1,4,5,6,7,8-hexahydro-cycloheptapyrazole-3-carboxylic acid [(1R)-3-hydroxy-1-phenyl-propyl]-amide] |  |  |  |  |  |  | > 5 µM | 0.13 µM |  |  |  |
| COC(=O)[C@H](Cc1ccc(F)cc1)NC(=O)c1n[nH]c2c1CCCC/C2=C\c1ccc(Cl)cc1 [Cpd 238, (8E)-(2S)-2-{[8-(4-chloro-benzylidene)-1,4,5,6,7,8-hexahydro-cycloheptapyrazole-3-carbonyl]-amino}-3-(4-fluoro-phenyl)-propionic acid methyl ester] | 0.03 µM | 85% | 0.01 µM | 93% | 0.15 µM | 0.001 µM |  |  |  |  |  |
| COC[C@@H](NC(=O)c1n[nH]c2c1CCCC[C@H]2Cc1cccc(Cl)c1)c1ccccc1 (stereo in doubt) [Cpd 252, (8S*)-(3-chloro-benzyl)-1,4,5,6,7,8-hexahydro-cycloheptapyrazole-3-carboxylic acid [(1S)-2-methoxy-1-phenyl-ethyl]-amide] |  |  |  |  | > 5 µM | 0.019 µM |  |  |  |  |  |
| COC(=O)[C@H](Cc1ccc(F)cc1)NC(=O)c1n[nH]c2c1CCCC/C2=C\c1cccc(Cl)c1 [Cpd 240, (8E)-(2S)-2-{[8-(3-chloro-benzylidene)-1,4,5,6,7,8-hexahydro-cycloheptapyrazole-3-carbonyl]-amino}-3-(4-fluoro-phenyl)-propionic acid methyl ester] | 0.2 µM | 35% | 0.04 µM | 78% | 1.6 µM | 0.013 µM |  |  |  |  |  |
| Cn1nc(C(=O)N[C@H](CCO)c2ccccc2)c2c1/C(=C/c1cccc(F)c1)CCCC2 [Cpd 249, (8E)-8-(3-fluoro-benzylidene)-1-methyl-1,4,5,6,7,8-hexahydro-cycloheptapyrazole-3-carboxylic acid [(1R)-3-hydroxy-1-phenyl-propyl]-amide] |  |  |  |  | > 5 µM | 0.047 µM |  |  |  |  |  |
| O=C(N[C@@H](CO)c1ccccc1)c1n[nH]c2c1CCCC/C2=C\c1cccc(Cl)c1 [Cpd 239, (8E)-8-(3-chloro-benzylidene)-1,4,5,6,7,8-hexahydro-cycloheptapyrazole-3-carboxylic acid [(1R)-2-hydroxy-1-phenyl-ethyl]-amide] | 0.03 µM | 80% | 0.02 µM | 91% | 0.02 µM | 0.0006 µM |  |  |  |  |  |
| C[C@@H](NC(=O)c1n[nH]c2c1CCCC/C2=C\c1ccc(Cl)cc1)c1ccccc1 [Cpd 142, (8E)-8-(4-chloro-benzylidene)-1,4,5,6,7,8-hexahydro-cycloheptapyrazole-3-carboxylic acid [(1R)-1-phenyl-ethyl]-amide] | 0.01 µM |  |  |  |  |  |  |  | 83% | ^(2)98% | 1% |
| Cn1nc(C(=O)N[C@@H](CO)c2ccccc2)c2c1/C(=C/c1cccc(F)c1)CCCC2 [Cpd 242, (8E)-8-(3-fluoro-benzylidene)-1-methyl-1,4,5,6,7,8-hexahydro-cycloheptapyrazole-3-carboxylic acid [(1R)-2-hydroxy-1-phenyl-ethyl]-amide] | 0.02 µM | 80% | 0.1 µM | 50% | 0.03 µM | 0.011 µM |  |  |  |  |  |
| COC(=O)[C@H](Cc1ccc(F)cc1)NC(=O)c1nn(C)c2c1CCCC/C2=C\c1cccc(F)c1 [Cpd 241, (8E)-(2S)-2-{[8-(3-fluoro-benzylidene)-1-methyl-1,4,5,6,7,8-hexahydro-cycloheptapyrazole-3-carbonyl]-amino}-3-(4-fluoro-phenyl)-propionic acid methyl ester] | 0.2 µM | 33% | 0.1 µM | 62% | 2.8 µM | 0.018 µM |  |  |  |  |  |
| COC(=O)[C@@H](Cc1ccc(F)cc1)NC(=O)c1n[nH]c2c1CCCC/C2=C\c1ccc(Cl)cc1 [Cpd 247, (8E)-(2R)-2-{[8-(4-chloro-benzylidene)-1,4,5,6,7,8-hexahydro-cycloheptapyrazole-3-carbonyl]-amino}-3-(4-fluoro-phenyl)-propionic acid methyl ester] | 0.002 µM | 91% | 0.001 µM | 96% | 0.008 µM | 0.004 µM |  |  |  |  |  |
| COC(=O)[C@@H](Cc1ccc(F)cc1)NC(=O)c1n[nH]c2c1CCCC/C2=C\c1cccc(Cl)c1 [Cpd 245, (8E)-(2R)-2-{[8-(3-chloro-benzylidene)-1,4,5,6,7,8-hexahydro-cycloheptapyrazole-3-carbonyl]-amino}-3-(4-fluoro-phenyl)-propionic acid methyl ester] | 0.006 µM | 68% | 0.002 µM | 93% | 0.08 µM | 0.001 µM |  |  |  |  |  |
| COC[C@H](NC(=O)c1n[nH]c2c1CCCC[C@@H]2Cc1cccc(Cl)c1)c1ccccc1 (stereo in doubt) [Cpd 254, (8R*)-(3-chloro-benzyl)-1,4,5,6,7,8-hexahydro-cycloheptapyrazole-3-carboxylic acid [(1R)-2-methoxy-1-phenyl-ethyl]-amide] |  |  |  |  | 0.08 µM | 0.002 µM |  |  |  |  |  |
| COC[C@H](NC(=O)c1n[nH]c2c1CCCC[C@H]2Cc1cccc(Cl)c1)c1ccccc1 (stereo in doubt) [Cpd 253, (8S*)-(3-chloro-benzyl)-1,4,5,6,7,8-hexahydro-cycloheptapyrazole-3-carboxylic acid [(1R)-2-methoxy-1-phenyl-ethyl]-amide] |  |  |  |  | > 5 µM | 0.2 µM |  |  |  |  |  |
| COC[C@@H](NC(=O)c1n[nH]c2c1CCCC[C@@H]2Cc1cccc(Cl)c1)c1ccccc1 (stereo in doubt) [Cpd 251, (8R*)-(3-chloro-benzyl)-1,4,5,6,7,8-hexahydro-cycloheptapyrazole-3-carboxylic acid [(1S)-2-methoxy-1-phenyl-ethyl]-amide] |  |  |  |  | 0.41 µM | 0.003 µM |  |  |  |  |  |
| O=C(N[C@@H](CO)c1ccccc1)c1n[nH]c2c1CCCC/C2=C\c1ccc(Cl)cc1 [Cpd 234, (8E)-8-(4-chloro-benzylidene)-1,4,5,6,7,8-hexahydro-cycloheptapyrazole-3-carboxylic acid [(1R)-2-hydroxy-1-phenyl-ethyl]-amide] | 0.02 µM | 87% | 0.06 µM | 93% | 0.008 µM | 0.005 µM |  |  |  |  |  |
